US12435059B2, “AMP-activated protein kinase inhibitors and methods of making and using the same” (The Regents of the University of Colorado, priority 2019, dated 2025)
Like-named read-outs stand apart in the source and are kept apart here.

How the values were obtained:
Assay in all cases: biochemical
Format in all cases: binding
[1] = target: 468 kinases (Homo sapiens, UniProt P10721, T670I/V559D); details: KIT(V559D,T6701); read-out: % Inhibition @ 100 nM
[2] = target: 468 kinases (Homo sapiens, UniProt P78356); details: PIP5K2B; read-out: % Inhibition @ 100 nM
[3] = target: 468 kinases (Homo sapiens, UniProt Q12852); details: DLK; read-out: % Inhibition @ 100 nM
[4] = target: 468 kinases (Homo sapiens, UniProt Q9Y6M4); details: CSNK1G3; read-out: % Inhibition @ 100 nM
[5] = target: 468 kinases (Homo sapiens, UniProt O96017); details: CHEK2; read-out: % Inhibition @ 100 nM
[6] = target: 468 kinases (Homo sapiens, UniProt P57078); details: RIPK4; read-out: % Inhibition @ 100 nM
[7] = target: 468 kinases (Homo sapiens, UniProt Q9NRH2); details: SNRK; read-out: % Inhibition @ 100 nM
[8] = target: 468 kinases (Homo sapiens, UniProt P22455); details: FGFR4; read-out: % Inhibition @ 100 nM
[9] = target: 468 kinases (Homo sapiens, UniProt P28482); details: ERK2; read-out: % Inhibition @ 100 nM
[10] = target: 468 kinases (Homo sapiens, UniProt P15056); details: BRAF; read-out: % Inhibition @ 100 nM
[11] = target: 468 kinases (Homo sapiens, UniProt Q92918); details: HPK1; read-out: % Inhibition @ 100 nM
[12] = target: 468 kinases (Homo sapiens, UniProt P00519, Q252H); details: read-out: % Inhibition @ 100 nM
[13] = target: 468 kinases (Homo sapiens, UniProt O00750); details: PIK3C2B; read-out: % Inhibition @ 100 nM
[14] = target: 468 kinases (Homo sapiens, UniProt O43283); details: LZK; read-out: % Inhibition @ 100 nM
[15] = tested on: 468 kinases; details: for Number of kinases inhibited >90%: at 100 nM, of 468 kinases
[16] = target: 468 kinases (Homo sapiens, UniProt Q7L7X3); details: TAOK1; read-out: % Inhibition @ 100 nM
[17] = target: 468 kinases (Homo sapiens, UniProt Q8N4C8); details: MINK; read-out: % Inhibition @ 100 nM
[18] = target: 468 kinases (Homo sapiens, UniProt O95747); details: OSR1; read-out: % Inhibition @ 100 nM
[19] = target: 468 kinases (Homo sapiens, UniProt Q7KZI7); details: MARK2; read-out: % Inhibition @ 100 nM
[20] = target: 468 kinases (Homo sapiens, UniProt Q8IWQ3); details: BRSK2; read-out: % Inhibition @ 100 nM
[21] = target: 468 kinases (Homo sapiens, UniProt Q14289); details: PYK2; read-out: % Inhibition @ 100 nM
[22] = target: 468 kinases (Homo sapiens, UniProt Q9Y243); details: AKT3; read-out: % Inhibition @ 100 nM
[23] = target: 468 kinases (Homo sapiens, UniProt P42336, E545A); details: PIK3CA(E545A); read-out: % Inhibition @ 100 nM
[24] = target: 468 kinases (Homo sapiens, UniProt Q9UBF8); details: PIK4CB; read-out: % Inhibition @ 100 nM
[25] = target: 468 kinases (Homo sapiens, UniProt P08069); details: IGFIR; read-out: % Inhibition @ 100 nM
[26] = target: 468 kinases (Homo sapiens, UniProt Q14012); details: CAMK1; read-out: % Inhibition @ 100 nM
[27] = target: 468 kinases (Homo sapiens, UniProt Q86UX6); details: YANK3; read-out: % Inhibition @ 100 nM
[28] = target: 468 kinases (Homo sapiens, UniProt P42336, C420R); details: PIK3CA(C420R); read-out: % Inhibition @ 100 nM
[29] = target: 468 kinases (Homo sapiens, UniProt Q86UE8); details: TLK2; read-out: % Inhibition @ 100 nM
[30] = target: 468 kinases (Homo sapiens, UniProt Q13464); details: ROCK1; read-out: % Inhibition @ 100 nM
[31] = target: 468 kinases (Homo sapiens, UniProt Q56UN5); details: YSK4; read-out: % Inhibition @ 100 nM
[32] = target: 468 kinases (Homo sapiens, UniProt Q9UKE5); details: TNIK; read-out: % Inhibition @ 100 nM

SMILES	inhibition at 0.1 µM [1] [%]	inhibition at 0.1 µM [2] [%]	inhibition at 0.1 µM [3] [%]	inhibition at 0.1 µM [4] [%]	inhibition at 0.1 µM [5] [%]	inhibition at 0.1 µM [6] [%]	inhibition at 0.1 µM [7] [%]	inhibition at 0.1 µM [8] [%]	inhibition at 0.1 µM [9] [%]	inhibition at 0.1 µM [10] [%]	inhibition at 0.1 µM [11] [%]	inhibition at 0.1 µM ([12]; ABL1 (Q252H)-nonphosphorylated) [%]	inhibition at 0.1 µM ([12]; ABL1 (Q252H)-phosphorylated) [%]	inhibition at 0.1 µM [13] [%]	inhibition at 0.1 µM [14] [%]	% Inhibition @ 100 nM ([15]; EGFR(L747-E749del, A750P)) [%]	% Inhibition @ 100 nM ([15]; EGFR(L747-S752del, P753S)) [%]	% Inhibition @ 100 nM ([15]; EGFR(L747-T751del,Sins)) [%]	% Inhibition @ 100 nM ([15]; FLT3(ITD)) [%]	% Inhibition @ 100 nM ([15]; FLT3(ITD,D835V)) [%]	further results
CCN(CC)CCNC(=O)c1c(C)[nH]c(/C=C2\C(=O)Nc3ccc(CCC(N)=O)cc32)c1C [Compound No. 16, (Z)-5-((5-(3-Amino-3-oxopropyl)-2-oxoindolin-3-ylidene)methyl)-N-(2-(diethylamino)ethyl)-2,4-dimethyl-1H-pyrrole-3-carboxamide]	23	86	100	5	93.2	14	10	1	6	11	95.2	55	54	24	61	27	5	11	97.2	100	% Inhibition @ 100 nM ([15]; FLT3(ITD,F691L)): 100%; Number of kinases inhibited >90% [15]: 33 kinases; inhibition at 0.1 µM [16]: 53%; inhibition at 0.1 µM [17]: 81%; inhibition at 0.1 µM [18]: 47%; inhibition at 0.1 µM [19]: 40%; inhibition at 0.1 µM [20]: 25%; inhibition at 0.1 µM [21]: 7%; inhibition at 0.1 µM [22]: 17%; inhibition at 0.1 µM [23]: 10%; inhibition at 0.1 µM [24]: 10%; inhibition at 0.1 µM [25]: 6%; inhibition at 0.1 µM [26]: 0%; inhibition at 0.1 µM [27]: 0%; inhibition at 0.1 µM [28]: 31%; inhibition at 0.1 µM [29]: 23%; inhibition at 0.1 µM [30]: 53%; inhibition at 0.1 µM [31]: 98.2%; inhibition at 0.1 µM [32]: 55%
CCN(CC)CCNC(=O)c1c(C)[nH]c(/C=C2\C(=O)Nc3ccc(CCO)cc32)c1C [Compound No. 10, (Z)—N-(2-(Diethylamino)ethyl)-5-((5-(2-hydroxyethyl)-2-oxoindolin-3-ylidene)methyl)-2,4-dimethyl-1H-pyrrole-3-carboxamide]	72	91.7	86	6	83	12	12	0	8	2	96.6	33	19	0	0	0	23	37	99.3	99.15	% Inhibition @ 100 nM ([15]; FLT3(ITD,F691L)): 100%; Number of kinases inhibited >90% [15]: 28 kinases; inhibition at 0.1 µM [16]: 22%; inhibition at 0.1 µM [17]: 91.8%; inhibition at 0.1 µM [18]: 0%; inhibition at 0.1 µM [19]: 6%; inhibition at 0.1 µM [20]: 32%; inhibition at 0.1 µM [21]: 31%; inhibition at 0.1 µM [22]: 47%; inhibition at 0.1 µM [23]: 3%; inhibition at 0.1 µM [24]: 0%; inhibition at 0.1 µM [25]: 0%; inhibition at 0.1 µM [26]: 0%; inhibition at 0.1 µM [27]: 22%; inhibition at 0.1 µM [28]: 0%; inhibition at 0.1 µM [29]: 0%; inhibition at 0.1 µM [30]: 4%; inhibition at 0.1 µM [31]: 90.4%; inhibition at 0.1 µM [32]: 86%
